Legend:
Assay type in all cases: cell-based, human
FLG [1] = experiment: FLG gene expression in NHEKs, real-time RT-PCR (Example 1); conditions: 0.01 and 0.02 v/v % thujopsene, 24 hours, dose-dependent, normalized to 18s RNA (FIG. 1A)
Description: (§1) Normal human epidermal keratinocytes (NHEKs) were cultured in a conventional way. NHEKs (Life Technologies, Grand Island, NY, USA) were derived from neonatal foreskin and were grown in serum-free EpiLife cell culture medium (Life Technologies) containing 0.06 mmol/L calcium chloride, 1% human keratinocyte growth supplement S7 (Life Technologies), and 1% of gentamicin/amphotericin. To investigate the effects of thujopsene on the expressions of FLG and LOR, NHEKs were seeded at 2×10^5 cells per well (24-well plate) and differentiated in the presence of 1.3 mmol/L of CaCl2) for 3 days. Then the cells were stimulated with 0 v/v %, 0.01 v/v % and 0.02 v/v % of thujopsene, IL-4 and IL-13, or IFN-γ for an additional 24 hours. Total RNA was isolated from NHEKs. Gene expression levels of FLG and LOR were determined by real-time RT-PCR using an ABI Prism 7300 sequence detector. Gene expressions of FLG and LOR were normalized to the corresponding 18s RNA transcript in the cultured NHEKs.

OR2AT4 = OR2AT4 gene expression in NHEKs (Example 5); conditions: 0.01% and 0.02% thujopsene, 24 hours, dose-dependent, versus no thujopsene (FIG. 5C)
Description: (§2) The upregulation of expressions of HBD-3, LL-37, OR2AT4, and/or SIRT1 can promote would healing and the upregulation of SIRT1 can inhibit tumor cell growth in skin cancer. To investigate the effects of thujopsene on expression of RBD-3, LL-37, OR2AT4, and SIRT1, NHEKs were differentiated in the presence of 1.3 mmol/L of CaCl2) for 3 days. Then cells were stimulated with 0.01% or 0.02% thujopsene for an additional 24 hours. The cell culture medium with 0.1% was used as a vehicle control because thujopsene was diluted with 0.1% of DMSO in cell culture medium.
(§3) Total RNA was isolated from to the cells, and real time RT-PCRs were performed by using an ABI Prism 7300 sequence detector.

SIRT1 [2] = experiment: SIRT1 gene expression in NHEKs (Example 5); conditions: 0.01% and 0.02% thujopsene, 24 hours, dose-dependent, versus no thujopsene (FIG. 5D)
Description: as §2, §3

LOR [3] = experiment: LOR gene expression in keratinocytes from atopic dermatitis patients (Example 3); conditions: keratinocytes from AD patients, 0.01 v/v % thujopsene, 24 hours, P=0.01 (FIG. 3B)
Description: (§4) Human epidermal keratinocytes taken from atopic dermatitis (AD) patients were differentiated in the presence of 1.3 mmol/L of CaCl2) for 3 days, and then the cells were stimulated with 0% and 0.01 v/v % of thujopsene for an additional 24 hours. Total RNA was isolated from keratinocytes. Gene expression levels of FLG and LOR were determined by real-time RT-PCR and normalized to the corresponding 18s RNA transcript in the cultured keratinocytes.

FLG [4] = experiment: PM2.5-mediated inhibition of FLG in NHEKs (Example 4); conditions: 0.01% thujopsene 24 hours, then PM2.5 (1 ng/mL) plus thujopsene 48 hours (FIG. 4A)
Description: (§5) To investigate the effects of the PM2.5 on the expression of FLG and LOR, NHEKs were differentiated in the presence of 1.3 mmol/L of CaCl2) for 3 days. Then cells were stimulated with PM2.5 (1 ng/mL) for an additional 48 hours.
(§6) To examine whether thujopsene blocks PM2.5-mediated inhibition of epidermal barrier proteins such as FLG and LOR, NHEKs were incubated with thujopsene (0.01 v/v %) for 24 hours, and then cells were stimulated with PM2.5 (1 ng/mL) or combination of thujopsene (0.01 v/v %) and PM2.5 for an additional 48 hours. Total RNAs were isolated from the cells, and real time RT-PCR was performed. EpiLife cell culture medium with 0.1% DMSO was used as a vehicle control for all in vitro experiments, as PM2.5 was diluted with EpiLife cell culture medium with 0.1% DMSO.

FLG [5] = experiment: FLG gene expression in keratinocytes from atopic dermatitis patients (Example 3); conditions: keratinocytes from AD patients, 0.01 v/v % thujopsene, 24 hours, P<0.05 (FIG. 3A)
Description: as §4

SIRT1 [6] = experiment: SIRT1 gene expression in NHEKs (Example 6)
Description: (§7) IL-6 aging process and wrinkling and is induced by lipopolysaccharide (LPS) (PMID: 23659624). SIRT1 inhibits skin aging and wrinkling process (PMID: 24011076). To investigate the effects of thujopsene on expression of IL-6 and SIRT1, NHEKs were seeded at 2×10^5 cells per well and differentiated in the presence of 1.3 mmol/L of CaCl2) for 3 days. NHEKs were stimulated with 0.01% or 0.02% thujopsene for 24 hours, and then cells were stimulated with LPS (1 μg/mL) alone or a combination of LPS (1 μg/mL) and thujopsene (0.01%) for an additional 24 hours. The cell culture medium with 0.1% DMSO was used as a vehicle. Total RNAs were isolated from cells, and real time RT-PCRs were performed by using an ABI Prism 7300 sequence detector.

NHEKs = experiment: LDH cell cytotoxicity assay in NHEKs (Example 7)
Description: LDH cell cytotoxicity assay: NHEKs were plated at 2×10^5 cells per well in a 24-well plate and differentiated in the presence of 1.3 mmol/L of CaCl2) for 3 days. To examine cell toxicity of thujopsene, the cells were treated with various concentrations of thujopsene for 48 hours, and lactate dehydrogenase (LDH) release was then determined using CytoTox-One Homogeneous Membrane Integrity Assay (Promega, Madison, WI, USA) according to the manufacturer's instructions. Fluorescence was measured on a DTX880 Multimode Detector (Beckman Coulter, Brea, CA, USA) with an excitation wavelength of 560 nm and an emission wavelength of 590 nm. Samples were tested in triplicate and fluorescence results were normalized by subtracting a PBS blank and compared to the keratinocyte LDH release in response to the treatment with 1% triton X-100 solution (maximum LDH release).

HBD-3 = HBD-3 gene expression in NHEKs (Example 5); conditions: 0.01% and 0.02% thujopsene, 24 hours, dose-dependent, versus no thujopsene (FIG. 5A)
Description: as §2, §3

LL-37 = LL-37 gene expression in NHEKs (Example 5); conditions: 0.01% and 0.02% thujopsene, 24 hours, dose-dependent, versus no thujopsene (FIG. 5B)
Description: as §2, §3

LOR [7] = experiment: PM2.5-mediated inhibition of LOR in NHEKs (Example 4); conditions: 0.01% thujopsene 24 hours, then PM2.5 (1 ng/mL) plus thujopsene 48 hours (FIG. 4B)
Description: as §5, §6

FLG [8] = experiment: Th2 cytokine (IL-4 and IL-13)-mediated inhibition of FLG in NHEKs (Example 2); conditions: 0.01% thujopsene 24 hours, then IL-4 and IL-13 with thujopsene for 2 days (FIG. 2)
Description: NHEKs were differentiated in the presence of 1.3 mmol/L of CaCl2) for 3 days. HEKs were incubated with 0.01% of thujopsene for 24 hours, and then the cells were continuously stimulated with IL-4 and IL-13 in the presence or absence of 0.01% of thujopsene for an additional 2 days. The gene expression of FLG was examined using real-time RT-PCR.

LOR [9] = experiment: LOR gene expression in NHEKs, real-time RT-PCR (Example 1); conditions: 0.01 and 0.02 v/v % thujopsene, 24 hours, dose-dependent, normalized to 18s RNA (FIG. 1B)
Description: as §1

IL-6 = experiment: LPS-induced IL-6 gene expression in NHEKs (Example 6); conditions: thujopsene (0.01%) plus LPS (1 μg/mL), 24 hours, versus LPS alone (FIG. 6A)
Description: as §7

CC1=CC[C@]2(C)CCCC(C)(C)[C@@]23C[C@@H]13 [thujopsene]
FLG gene expression (FLG [1]): significantly increases | gene expression of OR2AT4 (OR2AT4): significantly increased | gene expression of SIRT1 (SIRT1 [2]): significantly increased | LOR gene expression compared to vehicle (LOR [3]): significantly increased | level of expression of the FLG gene, PM2.5 plus thujopsene versus control (FLG [4]): higher than the control | FLG gene expression compared to vehicle (FLG [5]): significantly increased | gene expression of SIRT1 (SIRT1 [6]; 0.01% thujopsene, P<0.05 versus no thujopsene (FIG. 6B)): significantly increased | gene expression of SIRT1 (SIRT1 [6]; 0.02% thujopsene, P<0.01 versus no thujopsene (FIG. 6B)): significantly increased | toxicity to NHEKs (NHEKs; thujopsene up to 0.04 v/v % (FIG. 7 legend)): not toxic | LDH release compared to cells treated with media alone (NHEKs; thujopsene up to 4 v/v %, 48 hours (FIG. 7)): significantly decreased | toxicity to NHEKs (NHEKs; thujopsene up to 4 v/v %, 48 hours, LDH release (FIG. 7)): not toxic | gene expression of RBD-3 (HBD-3): significantly increased | gene expression of LL-37 (LL-37): significantly increased | level of expression of the LOR gene, PM2.5 plus thujopsene versus control (LOR [7]): about equal to the control | FLG gene expression, Th2 cytokines plus thujopsene compared with Th2 cytokines alone (FLG [8]): significantly (P<0.01) increased | LOR gene expression (LOR [9]): significantly increases | LPS-induced expression of IL-6 (IL-6): significantly (P<0.01) attenuated
